Measurements reported in the NIST ThermoML archive (doi:10.1016/j.jct.2007.02.009).
Numbers after ± are expanded uncertainties.

Assays:
[1] = Crystal; Adiabatic calorimetry
[2] = Molar enthalpy of transition or fusion; details: Crystal; Adiabatic calorimetry

Triple point temperature [1]: 254.23 ± 0.18 K
Molar enthalpy of transition or fusion [2]: 2.44 ± 0.0598 kcal/mol
SMILES: CC(=O)N(C)C [N,N-dimethylethanamide]
